Where “and” joins values, the source holds several entries; their conditions need not be identical. Equal entries are not always repeated.

Here are results for 20 molecules from ChEMBL document CHEMBL5604066, “ASAP - DENV-4 NS2B-NS3 protease fluorescence dose response” (2024).

The test addresses T1, NS3 protease (dengue virus type 4, UniProt A0A0K0TQ36).
T1 sequence (A0A0K0TQ36 whole entry): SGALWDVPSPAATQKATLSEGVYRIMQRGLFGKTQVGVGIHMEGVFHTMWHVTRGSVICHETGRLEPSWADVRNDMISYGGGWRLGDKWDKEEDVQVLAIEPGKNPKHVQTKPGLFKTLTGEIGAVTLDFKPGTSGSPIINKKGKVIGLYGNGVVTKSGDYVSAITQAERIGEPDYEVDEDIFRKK
The test can be described thus: Functional biochemical assay to identify treatments for viral infectious disease that targets Dengue virus type 4 NS2B-NS3 protease. Utilizing a direct enzyme activity measurement method, reading the fluorescence intensity is used to characterize the relative potency of inhibitors as IC50. Also on record: species or system Philippines/H241/1956.
Molecule `Cc1[nH]c2ccccc2c1CN1CCC(c2c[nH]c3ncccc23)CC1` gave a half-inhibitory concentration (IC50) greater than 99.5 µM.
As for `CC(C)NC(=O)[C@H](Nc1ccc2c(c1)CNC2)c1cc(Cl)cc2[nH]c(-c3ccccc3)nc12`, the figure is 14.6 µM and 4.38 µM; as for `O=C(NCC(F)F)[C@H](Nc1ccc2c(c1)CNC2)c1cc(F)cc2[nH]ncc12`, greater than 99.5 µM; as for `O=C(Nc1ccc2c(c1)CNC2)c1cc(Cl)cc2cn[nH]c12`, greater than 99.5 µM.
Then `Cn1cc(CCc2nc3c(C(=O)Nc4ccc5c(c4)CNC5)cc(Cl)cc3[nH]2)cn1`, with 26.4 µM; and `Cc1nc2c(C(=O)Nc3ccc4c(c3)CNC4)cc(Cl)cc2[nH]1`, with 26.7 µM.
As for `C=CC[C@H]1NCc2cc(NC(=O)c3cccc4c3CC(=O)N4)ccc21`, the figure is greater than 99.5 µM.
In turn, `O=C(NC1CCOCC1)[C@H](Nc1ccc2c(c1)CNC2)c1cc(Cl)cc2[nH]ncc12` returned an IC50 of 43.9 µM.
Take `Cn1cc(CNC(=O)[C@H](Nc2ccc3c(c2)CNC3)c2cc(Cl)cc(C3CC3)c2)cn1`: the 50% inhibitory concentration (IC50) is greater than 99.5 µM.
Then `O=C(Nc1ccc2c(c1)CNC2)c1ccc2[nH]cc(C3CCNCC3)c2c1`, with 36.7 µM; and `N#Cc1ccc(-c2nc3c(C(=O)Nc4ccc5c(c4)CNC5)cc(F)cc3[nH]2)cc1`, with 1.92 µM.
Regarding `O=C(Nc1ccc2c(c1)CNC2)c1cc(Br)cc2ccccc12`, the half-inhibitory concentration (IC50) was greater than 99.5 µM.
As for `O=C(Nc1ccc2c(c1)CNC2)c1cc(Br)cc2[nH]c(=O)[nH]c12`, the figure is 38.7 µM; as for `CNC(=O)[C@H](Nc1ccc2c(c1)CNC2)c1cc(Cl)cc(C2CC2)c1`, greater than 99.5 µM.
Then `O=C1Cc2cc(C(=O)Nc3ccc4c(c3)CNC4)ccc2N1`, with 14 µM and 8.21 µM; and `O=C(NCC(F)F)[C@H](Nc1ccc2c(c1)CNC2)c1cc(Cl)cc(C2CC2)c1`, with greater than 99.5 µM; and `O=C(Nc1ccc2c(c1)CNC2)c1cc(Cl)cc(C(F)(F)F)n1`, with 23 µM.
As for `O=C1Cc2c(cccc2C(=O)Nc2ccc3c(c2)CNC3)N1`, the figure is 15.1 µM; as for `O=C(Nc1cc(Br)c2c(c1)CNC2)c1cc(F)cc2[nH]ncc12`, greater than 99.5 µM.
For `O=C(Nc1ccc2c(c1)CNC2)c1ccc2[nH]ccc2c1`, the IC50 is greater than 99.5 µM.
